For data set [1], the system named is Wnt1 (int-1) mammary tumors. In words: Wnt1 subcutaneous mammary tumor model. The settings on record: E6201 40 mg/kg i.v. Q4Dx3; for tumor growth, single agent: E7449 100 mg/kg once daily, Wnt-C59 10 mg/kg once daily. The protocol: (§1) All studies were performed according to IACUC approved protocols. The general health of mice was monitored daily. Tumor volume was determined by caliper measurements (mm), using the formula (l x w^2)/2 = mm^3, where l and w refer to the larger and smaller perpendicular dimensions collected at each measurement. Tumor dimensions were recorded twice per week starting when tumors reached an approximate size of 100 to 150 mm^3. Body weights were recorded twice per week and relative body weight was calculated as follows: Relative body weight = (body weight on day of measurement/body weight on first day of treatment).
Tumor pieces cut to approximately 2 mm^3 in size were injected subcutaneously in female nude mice. Treatment was initiated approximately 9–10 days post-implantation of mice.

For data set [2] the following is noted: cited from earlier work.
Data set [3] concerns B16-F10 mouse melanoma isografts. In words: B16-F10 mouse melanoma isograft model, combination with TMZ. The data set is classed as in vivo. To be noted: E7449 100 mg/kg or TMZ 50 mg/kg, oral once daily. On the procedure: All studies were performed according to IACUC approved protocols. The general health of mice was monitored daily.
TMZ combination in B16-F10 isograft model: female C57BL/6 mice were inoculated subcutaneously with B16-F10 cells (2 × 10^5). Following randomization by body weight, drug treatment was initiated 1 day post-inoculation. […] TMZ was administered daily on days 1 to 5 at 50 mg/kg as a single agent or in combination. […] The control group was treated with vehicle (0.5% methyl cellulose in water). E7449 or vehicle was administered first and when dosing of all animals was complete TMZ was administered to animals receiving the combination.

The next data set relates to Wnt1 model tumors. In words: Gene expression of Wnt-related genes in Wnt1 model tumors (mouse TLDA). The data set is classed as in vivo. To be noted: 7 days of drug treatment. The protocol:
(§2) Gene expression profiling was performed using a custom designed TaqMan® low density array (TLDA). Total RNA was isolated from cell lines using RNeasy Mini Kit (Qiagen) and from xenograft tumor FFPE tissue using RecoverAll Total Nucleic Acid Isolation (Ambion). Human and mouse, real-time qPCR TLDAs (384-well micro fluidic card) were designed with genes selected based on their involvement in Wnt signalling (see supplementary Tables 2 and 3 for lists of genes on TLDAs). cDNA was generated from total RNA using High Capacity cDNA Reverse Transcription kit (Life Technologies) or SuperScript® VILO™ Master Mix (Life Technologies). 100 ng cDNA was combined with TaqMan® Gene Expression Master Mix (Life Technologies) for the cell lines and TaqMan® Advanced FAST Master Mix (Life Technologies) for the xenograft tissue for each port (in duplicate). TLDAs were run based on recommended cycling times for each master mix. Ct values were calculated and imported into GeneData Analyst for further analysis. To calculate the ΔCts, gene expression was normalized to several housekeeping genes. Relative fold change was calculated by comparison to the DMSO or vehicle-treated controls for each sample. A student's t-test was used to calculate P-values and hierarchical clustering used Manhattan distance and complete linkage plotting of selected significant genes to generate heat maps.

For data set [4], the system named is SW480 cells. In words: Western blot of Wnt/β-catenin pathway proteins in SW480 cells. The data set is classed as cell-based, human. To be noted: 10 μmol/L, 24 h. The protocol: (§3) SW480, DLD-1 (Wnt-dependent) or RKO (Wnt-independent) cells were plated in 6-well plates and incubated overnight. Cells were treated with E7449, olaparib or XAV939 and incubated for various time periods prior to processing by SDS PAGE and western blot analysis. […] Following binding of appropriate secondary antibodies labeled with IRDye® (LI-COR), image analysis was performed with Image Studio software for the LI-COR Odyssey system (version 2.1.10).
A general note: A western blot detects proteins with antibodies after separation by electrophoresis.

Data set [5] deals with SW480 cells. In words: Gene expression profiling of Wnt-related genes (TLDA qPCR) in SW480 cells. In kind it is cell-based, human. The settings on record: 3 μmol/L (XAV939 also 30 μmol/L), 72 h. On the procedure: as §2
In the next data set the test system is DLD-1 cells. In words: Western blot of Wnt/β-catenin pathway proteins in DLD-1 cells. To be noted: 24 h. In kind it is cell-based, human. The protocol:
as §3

The subject of data set [6] is MX-1 human breast cancer xenografts. In kind it is in vivo. To be noted: E7449 100 mg/kg oral once daily; carboplatin single i.v. dose 60 mg/kg. On the procedure:
as §1
Carboplatin combination in MX-1 orthotopic xenografts: female nude mice were implanted with MX-1 cells (0.5 × 10^6) in the thoracic mammary fat pad. Treatment started on day 3 when the average tumor size was approximately 50 mm^3. Carboplatin was administered as a single intravenous dose at 60 mg/kg on day 3 or 4.

A further data set addresses tankyrase. The settings on record: read-out: reported IC50 values for tankyrase inhibition; various assays; cited from earlier work.
For another data set, the system named is PARP2. The settings on record: read-out: reported IC50, PARP2; cited from earlier work.
In data set [7] the test system is DNA repair mutant DT40 cell lines. In words: Proliferation assay in panel of isogenic DNA repair mutant DT40 cell lines (XTT). The data set is classed as cell-based, avian. To be noted: versus wild type DT40.
The next data set has as its system TNKS1/2. Set-up: method as in Wahlberg et al 48. The settings on record: ref Wahlberg et al 48; cited from earlier work.
The test system of the next data set is wild type DT40 cells. In words: cells. The settings on record: DT40, 48 h, read-out: IC50, cell proliferation, wild type DT40 cells.
In the next data set the test system is TNKS1. The settings on record: read-out: reported IC50, TNKS1; cited from earlier work.

The text below walks through data of article PMC4747407 (Oncotarget, 2015).

“Also recorded” adds a separate entry of the source.

Method for wild type DT40 cells: Proliferation assays were performed in a panel of 32 isogenic DT40 cell lines, in which each line was deficient in a distinct DNA repair gene [31]. Cells were seeded and incubated with test compound at various concentrations for 2–3 days (~ 8 cell cycles). […] Each experiment was conducted in duplicate and a minimum of 3 separate experiments were performed. […] For proliferation assays cells were plated at low density in 96 well plates. […] Cell growth was assessed using the CellTiter-Glo® cell viability assay (Promega, Cat# G7573). Each experiment was conducted in duplicate and a minimum of 3 separate experiments were performed.

As to `CCNc1cc(O)c2c(c1)/C=C/C[C@H](O)[C@H](O)C(=O)/C=C\[C@@H](C)[C@H](C)OC2=O` [E6201, reference compound], in data set [1] (recovered post-treatment), the decreased body weight was less than 10%. Further, the “tumor growth, single agent” value in [1] is listed as “No antitumor activity”.

Turning to `CS(=O)(=O)c1ccc(-c2nnc(/C=C/c3nnc(-c4ccc(C#N)cc4)o3)n2-c2ccccc2Cl)nc1` [G007-LK], the “single agent antitumor activity” value in [2] was “inhibit tumor growth as a single agent in certain models”. The therapeutic window result in data set [2] (in vivo) is reported as “very narrow therapeutic window because of intestinal toxicity”.

With `Cn1nnc2c(C(N)=O)ncn2c1=O` [TMZ, temozolomide, reference compound], in [3], the “growth of subcutaneous tumors, single agent” value is recorded as “moderately inhibited”.

Regarding `Cc1cc(-c2ccc(CC(=O)Nc3ccc(-c4cccnc4)cc3)cc2)ccn1` [Wnt-C59, reference compound], the “tumor growth, single agent” value in data set [1] was “significant antitumor activity; also recorded: significantly inhibited tumor growth”. Also, in the data set on Wnt1 model tumors, the “expression of Wnt-related genes CAR2, FZD9, LEF1, VIL1 in tumors” value was “significant alteration”.

As to `Oc1nc(-c2ccc(C(F)(F)F)cc2)nc2c1CSCC2` [XAV939], in the data set with SW480 cells [4], the “Cyclin D1 protein levels” value is given as “modest decrease”, the axin2 protein level result is given as “Increased axin2”, the “reduction of active (non-phosphorylated) β-catenin level” value is ~ 90% and the “reduction of total β-catenin level” value is approximately 75%. The “expression of 6 E7449-responsive genes (NOS3, LGR5, LEF1, NKD1, CYR61, MMP7)” value with SW480 cells [5] is “altered expression of these 6 genes in the same direction”. The “effect on levels of β-catenin” value with DLD-1 cells is “robust effect on levels of β-catenin was not observed”.

For the molecule `N.N.O=C([O-])C1(C(=O)[O-])CCC1.[Pt+2]` [carboplatin, reference compound], the “antitumor activity, single agent” value in data set [6] was “modest, but statistically significant versus vehicle; also recorded: only modest antitumor activity”.

In the case of `NC(=O)c1cccc2cn(-c3ccc([C@@H]4CCCNC4)cc3)nc12` [niraparib], the IC50 on tankyrase is 0.6 µM.

For the molecule `O=C(c1cc(Cc2n[nH]c(=O)c3ccccc23)ccc1F)N1CCN(C(=O)C2CC2)CC1` [olaparib], the IC50 is […] on tankyrase, […] with PARP2, 2.1 µM with wild type DT40 cells and […] in the data set on TNKS1. The “sensitivity of DT40 cells lacking PARP expression” value in [7] is “A similar observation”. Besides, the “Cyclin D1 protein levels” value in the data set on SW480 cells [4] was “unaffected”. For the same molecule, the axin2 protein level result with SW480 cells [4] is “remained at basal levels”. In addition, the β-catenin protein levels result in the data set on SW480 cells [4] is on record as “remained unchanged”. The “expression of 6 E7449-responsive genes (NOS3, LGR5, LEF1, NKD1, CYR61, MMP7)” value in the data set on SW480 cells [5] is recorded as “no effect or altered expression in the opposite direction”. Besides, the “binding to TNKS1/2 catalytic domain” value with TNKS1/2 was “no significant binding”.

On to `CNCc1ccc(-c2[nH]c3cc(F)cc4c3c2CCNC4=O)cc1` [rucaparib], for which the “binding to TNKS1/2 catalytic domain” value with TNKS1/2 was “binding to the catalytic domain of multiple PARP family members including tankyrases”.

For the molecule `C[C@]1(c2nc3c(C(N)=O)cccc3[nH]2)CCCN1` [veliparib], the IC50 on tankyrase is […]. Also, the “binding to TNKS1/2 catalytic domain” value with TNKS1/2 is listed as “no significant binding”.
